Experimental data taken from PubChem BioAssay AID1963962 (Molecular Pharmacology Branch, DTP, NCI, 2024).

Test system: 967376-340-R-J2-PDC multicell spheroid viability
Test: Anticancer human tumor 967376-340-R-J2-PDC patient-derived colon adenocarcinoma cell line growth inhibition [PI3K]
Conditions: for IC50: curve of first compound; for viability, T/C: stronger effect = lower value
Outline: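 Complex 3D spheroids (cancer cells + endothelial HUVEC + mesenchymal stem cells); drug pairs of targeted agent x inavolisib/alpelisib/duvelisib/copanlisib; half-log series from ~Cmax, max 10 microM if Cmax unknown; endpoint viability.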

[1] = second compound 0.0316 µM, first compound 0.0316 µM
[2] = second compound 0.0316 µM, first compound 0.1 µM
[3] = second compound 0.0316 µM, first compound 0.316 µM
[4] = second compound 0.0316 µM, first compound 1 µM
[5] = second compound 0.0316 µM, first compound 3.16 µM
[6] = second compound 0.0316 µM, first compound 10 µM
[7] = second compound 0.1 µM, first compound 0.0316 µM
[8] = second compound 0.1 µM, first compound 0.1 µM
[9] = second compound 0.1 µM, first compound 0.316 µM
[10] = second compound 0.1 µM, first compound 1 µM
[11] = second compound 0.1 µM, first compound 3.16 µM
[12] = second compound 0.1 µM, first compound 10 µM
[13] = second compound 0.316 µM, first compound 0.0316 µM
[14] = second compound 0.316 µM, first compound 0.1 µM
[15] = second compound 0.316 µM, first compound 0.316 µM
[16] = second compound 0.316 µM, first compound 1 µM
[17] = second compound 0.316 µM, first compound 3.16 µM
[18] = second compound 0.316 µM, first compound 10 µM
[19] = second compound 1 µM, first compound 0.0316 µM
[20] = second compound 1 µM, first compound 0.1 µM
[21] = second compound 1 µM, first compound 0.316 µM
[22] = second compound 1 µM, first compound 1 µM
[23] = second compound 1 µM, first compound 3.16 µM
[24] = second compound 1 µM, first compound 10 µM
[25] = second compound 3.16 µM, first compound 0.0316 µM
[26] = second compound 3.16 µM, first compound 0.1 µM
[27] = second compound 3.16 µM, first compound 0.316 µM
[28] = second compound 3.16 µM, first compound 1 µM
[29] = second compound 3.16 µM, first compound 3.16 µM
[30] = second compound 3.16 µM, first compound 10 µM
[31] = second compound 10 µM, first compound 0.0316 µM
[32] = second compound 10 µM, first compound 0.1 µM
[33] = second compound 10 µM, first compound 0.316 µM
[34] = second compound 10 µM, first compound 1 µM
[35] = second compound 10 µM, first compound 3.16 µM
[36] = second compound 10 µM, first compound 10 µM
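Note: spheroids exposed to agents for 7 days before read-out.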
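Throughout, for viability, T/C: luminescence used as surrogate of cell viability.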

Molecule `CCCS(=O)(=O)Nc1ccc(F)c(C(=O)c2c[nH]c3ncc(-c4ccc(Cl)cc4)cc23)c1F` + CC(Nc1ncnc2nc[nH]c12)c1cc2cccc(Cl)c2c(=O)n1-c1ccccc1 has an IC50 (second compound 0.0316 µM) greater than 10 µM, an IC50 (second compound 0.1 µM) greater than 10 µM and an IC50 (second compound 0.316 µM) greater than 10 µM. The IC50 (second compound 1 µM) was greater than 10 µM, the IC50 (second compound 3.16 µM) was greater than 10 µM and the IC50 (second compound 10 µM) was greater than 10 µM. The viability, T/C [1] was 122%, the viability, T/C [2] was 125% and the viability, T/C [3] was 109%. For the same molecule, the viability, T/C [4] was 113%, the viability, T/C [5] was 103% and the viability, T/C [6] was 58.9%. It also gave a viability, T/C [7] of 97.2%, a viability, T/C [8] of 106% and a viability, T/C [9] of 99.1%. The viability, T/C [10] was 90.5%, the viability, T/C [11] was 92% and the viability, T/C [12] was 52.7%. For the same molecule, the viability, T/C [13] was 103%, the viability, T/C [14] was 89.1% and the viability, T/C [15] was 96.6%. It also gave a viability, T/C [16] of 96.3%, a viability, T/C [17] of 109% and a viability, T/C [18] of 60.4%. It also gave a viability, T/C [19] of 98.2%, a viability, T/C [20] of 95.4% and a viability, T/C [21] of 105%. For the same molecule, the viability, T/C [22] was 92.7%, the viability, T/C [23] was 110% and the viability, T/C [24] was 58.4%. It also gave a viability, T/C [25] of 119%, a viability, T/C [26] of 79.9% and a viability, T/C [27] of 92.2%. The viability, T/C [28] was 111%, the viability, T/C [29] was 100% and the viability, T/C [30] was 74.9%. It also gave a viability, T/C [31] of 84.2%, a viability, T/C [32] of 87.1% and a viability, T/C [33] of 80%. For the same molecule, the viability, T/C [34] was 88.7%, the viability, T/C [35] was 98.7% and the viability, T/C [36] was 61.1%.

Work on `Cn1ncc(Cl)c1-c1cc(C(=O)NC(CN)Cc2cccc(F)c2)sc1Cl` (stereo unspecified) + CC(Nc1ncnc2nc[nH]c12)c1cc2cccc(Cl)c2c(=O)n1-c1ccccc1 yielded an IC50 (second compound 0.0316 µM) greater than 10 µM, an IC50 (second compound 0.1 µM) greater than 10 µM and an IC50 (second compound 0.316 µM) greater than 10 µM. The IC50 (second compound 1 µM) was 9.58 µM, the IC50 (second compound 3.16 µM) was greater than 10 µM and the IC50 (second compound 10 µM) was 6.67 µM. It also gave a viability, T/C [1] of 99%, a viability, T/C [2] of 95% and a viability, T/C [3] of 93.6%. The viability, T/C [4] was 91.1%, the viability, T/C [5] was 66.9% and the viability, T/C [6] was 62.5%. It also gave a viability, T/C [7] of 122%, a viability, T/C [8] of 97.3% and a viability, T/C [9] of 104%. It also gave a viability, T/C [10] of 86.7%, a viability, T/C [11] of 84.8% and a viability, T/C [12] of 71.1%. It also gave a viability, T/C [13] of 87.2%, a viability, T/C [14] of 97.7% and a viability, T/C [15] of 86.9%. The viability, T/C [16] was 81.4%, the viability, T/C [17] was 78.3% and the viability, T/C [18] was 64.6%. It also gave a viability, T/C [19] of 85.3%, a viability, T/C [20] of 104% and a viability, T/C [21] of 101%. The viability, T/C [22] was 86.4%, the viability, T/C [23] was 79.1% and the viability, T/C [24] was 48.8%. For the same molecule, the viability, T/C [25] was 101%, the viability, T/C [26] was 93.7% and the viability, T/C [27] was 104%. It also gave a viability, T/C [28] of 73.5%, a viability, T/C [29] of 73.2% and a viability, T/C [30] of 53.6%. For the same molecule, the viability, T/C [31] was 79.4%, the viability, T/C [32] was 88.5% and the viability, T/C [33] was 96.7%. The viability, T/C [34] was 86.3%, the viability, T/C [35] was 60.3% and the viability, T/C [36] was 44.4%.

Molecule `CC1(C)CCC(CN2CCN(c3ccc(C(=O)NS(=O)(=O)c4ccc(NCC5CCOCC5)c([N+](=O)[O-])c4)c(Oc4cnc5[nH]ccc5c4)c3)CC2)=C(c2ccc(Cl)cc2)C1` + CC(Nc1ncnc2nc[nH]c12)c1cc2cccc(Cl)c2c(=O)n1-c1ccccc1 has an IC50 (second compound 0.0316 µM) greater than 10 µM, an IC50 (second compound 0.1 µM) greater than 10 µM and an IC50 (second compound 0.316 µM) greater than 10 µM. It also gave an IC50 (second compound 1 µM) greater than 10 µM, an IC50 (second compound 3.16 µM) greater than 10 µM and an IC50 (second compound 10 µM) greater than 10 µM. It also gave a viability, T/C [1] of 92%, a viability, T/C [2] of 83.4% and a viability, T/C [3] of 98.1%. The viability, T/C [4] was 83.8%, the viability, T/C [5] was 75.6% and the viability, T/C [6] was 92.2%. The viability, T/C [7] was 95.1%, the viability, T/C [8] was 79.7% and the viability, T/C [9] was 82.7%. The viability, T/C [10] was 87.3%, the viability, T/C [11] was 86.3% and the viability, T/C [12] was 75.2%. The viability, T/C [13] was 102%, the viability, T/C [14] was 101% and the viability, T/C [15] was 83%. For the same molecule, the viability, T/C [16] was 83.1%, the viability, T/C [17] was 86.5% and the viability, T/C [18] was 71.6%. It also gave a viability, T/C [19] of 88.5%, a viability, T/C [20] of 115% and a viability, T/C [21] of 116%. For the same molecule, the viability, T/C [22] was 87.8%, the viability, T/C [23] was 79% and the viability, T/C [24] was 74.1%. It also gave a viability, T/C [25] of 90.4%, a viability, T/C [26] of 86% and a viability, T/C [27] of 67.6%. It also gave a viability, T/C [28] of 82.9%, a viability, T/C [29] of 79.1% and a viability, T/C [30] of 101%. For the same molecule, the viability, T/C [31] was 55.1%, the viability, T/C [32] was 73.3% and the viability, T/C [33] was 83.4%. It also gave a viability, T/C [34] of 74.7%, a viability, T/C [35] of 68% and a viability, T/C [36] of 76.3%.
